In ChEMBL document CHEMBL1201862, “PubChem BioAssay data set” (2004):
Calls of active or inactive are those of the source.

Assays:
[1] = biological target: T1, Sentrin-specific protease 8 (Homo sapiens, UniProt Q96LD8); type: functional
T1 sequence (Q96LD8 whole entry): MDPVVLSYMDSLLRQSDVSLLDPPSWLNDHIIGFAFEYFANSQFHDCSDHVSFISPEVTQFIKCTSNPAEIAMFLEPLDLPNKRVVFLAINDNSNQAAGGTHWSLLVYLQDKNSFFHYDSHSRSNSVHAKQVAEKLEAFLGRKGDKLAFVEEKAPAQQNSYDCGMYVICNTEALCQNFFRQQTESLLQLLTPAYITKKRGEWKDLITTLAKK

Caspase-3 = biological target: T2, Caspase-3 (Homo sapiens, UniProt P42574); test: Dose-response confirmation of uHTS inhibitor hits of Sentrin-Specific Protease 8 in a Caspase-3 Fluorescence assay.; type: functional
T2 sequence (P42574 whole entry): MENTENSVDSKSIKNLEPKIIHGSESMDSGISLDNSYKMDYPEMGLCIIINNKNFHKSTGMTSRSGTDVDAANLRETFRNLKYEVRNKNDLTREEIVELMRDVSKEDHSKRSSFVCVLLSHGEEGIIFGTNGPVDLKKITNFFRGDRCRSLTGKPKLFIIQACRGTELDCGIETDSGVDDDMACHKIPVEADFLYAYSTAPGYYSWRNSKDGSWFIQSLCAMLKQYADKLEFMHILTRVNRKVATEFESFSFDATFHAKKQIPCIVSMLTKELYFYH

[2] = biological target: T1, Sentrin-specific protease 8; type: functional; remark: listed apart in the source
Paired box protein Pax-8 = Paired box protein Pax-8 (Homo sapiens, UniProt Q06710); test: PAX8 transcriptional activity inhibition in RMG-I – RMG-I cells, luciferase, cherry-pick, dose response (AID 687027); type: functional, cell-based;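 note: luciferase reporter driven by Pax8 target thyroperoxidase promoter measured by SteadyGlo luminescence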
HeLa = test: viability loss in HeLa cells – cell-based, ATP luminescence, cherry-pick samples, cytotoxicity control, dose response (AID 687004); type: functional
Cryptococcus neoformans [3] = test: Cryptococcus growth inhibition by alamar blue – cell lysis, cherry-picks, replicate tests, mechanism study for C. neoformans antifungal project, dose response (AID 686999); type: functional, organism-based
Cryptococcus neoformans [4] = test: PubChem AID 686997; type: functional, organism-based
HEK293 = test: viability loss in HEK293T cells – cell-based, ATP luminescence, cherry-pick samples, cytotoxicity control, dose response (AID 687005); type: functional; conditions: Homo sapiens;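 note: cells exposed to compound for 48 hours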
[5] = HEK293 Cytotoxicity Assay Measured in Cell-Based System Using Plate Reader - 7071-01_Inhibitor_Dose_CherryPick_Activity_Set2.; type: functional
[6] = Counterscreen for activators of the function of SWI/SNF related, matrix associated, actin dependent regulator of chromatin, subfamily a, member 2 (SMARCA2, BRM): Luminescence-based cell-based high throughput dose response assay to identify non-selective compounds using the VP16 reporter assay.; type: functional
[7] = biological target: SWI/SNF-related matrix-associated actin-dependent regulator of chromatin subfamily A member 2 (Homo sapiens, UniProt P51531); test: Luminescence-based cell-based high throughput dose response assay to identify activators of the function of SWI/SNF related, matrix associated, actin dependent regulator of chromatin, subfamily a, member 2 (SMARCA2, BRM).; type: functional
[8] = biological target: T3, Sentrin-specific protease 1 (Homo sapiens, UniProt Q9P0U3); test: SENP1 catalytic domain blockers, concentration series – biochemical, kinetic FRET, dose response (AID 651697); type: functional; conditions: read-out: IC50_Mean
T3 sequence (Q9P0U3 whole entry): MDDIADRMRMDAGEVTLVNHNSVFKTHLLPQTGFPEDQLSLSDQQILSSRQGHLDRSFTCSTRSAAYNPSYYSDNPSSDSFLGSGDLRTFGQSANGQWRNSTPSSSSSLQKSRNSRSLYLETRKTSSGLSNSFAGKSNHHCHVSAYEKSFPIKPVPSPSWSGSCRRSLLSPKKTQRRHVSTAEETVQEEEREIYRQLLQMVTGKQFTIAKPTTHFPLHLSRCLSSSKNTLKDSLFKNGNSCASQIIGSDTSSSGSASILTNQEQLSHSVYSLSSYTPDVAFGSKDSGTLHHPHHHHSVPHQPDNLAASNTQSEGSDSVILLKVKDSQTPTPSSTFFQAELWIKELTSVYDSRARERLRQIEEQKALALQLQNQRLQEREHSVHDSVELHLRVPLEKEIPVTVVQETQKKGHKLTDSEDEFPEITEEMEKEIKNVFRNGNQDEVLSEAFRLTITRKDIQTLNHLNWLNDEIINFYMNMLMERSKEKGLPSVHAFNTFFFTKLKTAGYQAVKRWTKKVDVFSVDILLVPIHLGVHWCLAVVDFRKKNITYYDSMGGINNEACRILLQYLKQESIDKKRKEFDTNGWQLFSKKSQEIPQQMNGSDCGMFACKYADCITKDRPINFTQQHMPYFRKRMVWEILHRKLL

[9] = biological target: T3, Sentrin-specific protease 1; test: Dose response confirmation of small molecule inhibitors of the catalytic domain of the SUMO protease, SENP1 in a FRET assay.; type: functional; conditions: read-out: IC50_Mean
[10] = biological target: T4, Long-chain-fatty-acid--AMP ligase FadD28 (Mycobacterium tuberculosis, UniProt P9WQ59); test: Fluorescence polarization aasay to screen for inhibitors that compete for the binding of FadD28 to a bisubstrate Measured in Biochemical System Using Plate Reader - 2147-01_Inhibitor_Dose_CherryPick_Activity.; type: functional, Mycobacterium tuberculosis H37Rv
T4 sequence (P9WQ59 whole entry): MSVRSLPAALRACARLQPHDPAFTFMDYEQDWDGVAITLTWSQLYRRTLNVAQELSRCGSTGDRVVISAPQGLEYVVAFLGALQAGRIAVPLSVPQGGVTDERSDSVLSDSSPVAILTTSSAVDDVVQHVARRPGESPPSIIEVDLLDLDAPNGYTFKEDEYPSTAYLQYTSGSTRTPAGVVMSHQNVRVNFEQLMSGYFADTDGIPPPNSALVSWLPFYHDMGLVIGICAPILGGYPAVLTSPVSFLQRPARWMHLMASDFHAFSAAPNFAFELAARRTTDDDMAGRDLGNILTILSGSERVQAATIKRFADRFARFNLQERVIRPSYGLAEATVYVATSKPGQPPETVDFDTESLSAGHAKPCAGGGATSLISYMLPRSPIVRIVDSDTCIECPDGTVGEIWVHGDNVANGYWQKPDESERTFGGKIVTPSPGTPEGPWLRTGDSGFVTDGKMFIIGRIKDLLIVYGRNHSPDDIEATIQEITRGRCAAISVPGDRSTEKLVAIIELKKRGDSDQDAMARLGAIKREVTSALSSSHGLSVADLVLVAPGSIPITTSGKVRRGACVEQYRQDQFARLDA

Chain of SWI/SNF-related matrix-associated actin-dependent regulator of chromatin subfamily A member 2 (P51531 whole entry, the tested form may be a part): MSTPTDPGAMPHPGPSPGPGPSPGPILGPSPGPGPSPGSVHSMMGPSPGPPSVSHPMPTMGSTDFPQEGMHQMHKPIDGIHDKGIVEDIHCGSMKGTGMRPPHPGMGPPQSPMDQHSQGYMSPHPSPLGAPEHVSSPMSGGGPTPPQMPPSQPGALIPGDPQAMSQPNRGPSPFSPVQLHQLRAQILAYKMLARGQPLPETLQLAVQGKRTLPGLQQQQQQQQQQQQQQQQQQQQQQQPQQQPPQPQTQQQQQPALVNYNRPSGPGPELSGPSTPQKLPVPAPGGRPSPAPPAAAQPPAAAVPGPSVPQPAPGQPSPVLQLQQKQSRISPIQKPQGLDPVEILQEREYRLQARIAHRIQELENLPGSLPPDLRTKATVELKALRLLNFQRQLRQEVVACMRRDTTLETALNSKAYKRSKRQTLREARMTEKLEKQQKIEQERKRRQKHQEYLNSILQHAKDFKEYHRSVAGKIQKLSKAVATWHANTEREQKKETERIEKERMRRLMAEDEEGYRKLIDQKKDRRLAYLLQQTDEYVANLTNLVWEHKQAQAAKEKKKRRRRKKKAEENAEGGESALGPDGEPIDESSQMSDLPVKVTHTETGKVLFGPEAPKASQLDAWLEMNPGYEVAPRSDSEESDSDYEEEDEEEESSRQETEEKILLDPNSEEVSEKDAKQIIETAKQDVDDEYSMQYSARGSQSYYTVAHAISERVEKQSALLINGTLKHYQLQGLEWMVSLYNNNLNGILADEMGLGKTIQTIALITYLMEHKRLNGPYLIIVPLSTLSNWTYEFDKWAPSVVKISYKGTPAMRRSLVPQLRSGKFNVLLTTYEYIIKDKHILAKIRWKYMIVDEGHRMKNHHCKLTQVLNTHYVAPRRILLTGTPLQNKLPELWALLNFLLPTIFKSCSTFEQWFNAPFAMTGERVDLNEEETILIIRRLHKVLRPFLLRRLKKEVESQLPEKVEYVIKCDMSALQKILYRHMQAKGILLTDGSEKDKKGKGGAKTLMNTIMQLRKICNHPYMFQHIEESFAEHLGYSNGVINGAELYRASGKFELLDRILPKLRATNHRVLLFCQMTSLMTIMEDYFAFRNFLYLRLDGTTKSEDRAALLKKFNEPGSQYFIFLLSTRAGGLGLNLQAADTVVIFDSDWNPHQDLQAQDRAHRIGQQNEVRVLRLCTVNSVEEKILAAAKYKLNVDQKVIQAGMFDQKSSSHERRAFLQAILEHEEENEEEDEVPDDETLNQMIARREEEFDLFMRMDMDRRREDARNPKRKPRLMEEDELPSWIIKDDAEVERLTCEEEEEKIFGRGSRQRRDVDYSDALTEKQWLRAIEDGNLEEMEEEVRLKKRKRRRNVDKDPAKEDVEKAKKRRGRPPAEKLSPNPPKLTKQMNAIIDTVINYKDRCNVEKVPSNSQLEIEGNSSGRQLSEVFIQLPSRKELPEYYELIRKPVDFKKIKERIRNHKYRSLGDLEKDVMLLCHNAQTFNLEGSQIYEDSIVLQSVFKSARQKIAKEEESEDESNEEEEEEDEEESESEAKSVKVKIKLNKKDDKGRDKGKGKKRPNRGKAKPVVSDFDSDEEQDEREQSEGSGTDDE
Chain of Paired box protein Pax-8 (Q06710 whole entry): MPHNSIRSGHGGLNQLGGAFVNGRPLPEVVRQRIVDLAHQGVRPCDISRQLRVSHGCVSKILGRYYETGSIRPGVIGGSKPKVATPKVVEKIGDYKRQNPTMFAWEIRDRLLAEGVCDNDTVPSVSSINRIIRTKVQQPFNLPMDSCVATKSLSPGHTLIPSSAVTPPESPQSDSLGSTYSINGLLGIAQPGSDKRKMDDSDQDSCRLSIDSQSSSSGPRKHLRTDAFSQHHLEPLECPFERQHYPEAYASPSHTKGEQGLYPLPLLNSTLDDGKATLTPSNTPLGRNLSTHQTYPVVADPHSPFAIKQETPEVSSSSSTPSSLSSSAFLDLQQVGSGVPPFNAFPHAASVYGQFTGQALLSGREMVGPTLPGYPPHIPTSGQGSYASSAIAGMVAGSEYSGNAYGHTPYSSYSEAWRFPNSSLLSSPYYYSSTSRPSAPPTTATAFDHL

Row | SMILES | IC50 [1] | IC50 (Caspase-3) | IC50 [2] | AC50 (HeLa; Homo sapiens) | AC50 (Cryptococcus neoformans [3]) | AC50 (Cryptococcus neoformans [4]; Cryptococcus neoformans) | further results
1 | O=C(NC1CCCCC1)C(c1ccnc2ccccc12)N1CCc2ccccc2C1 (configuration not stated) | 17.5 µM (active) | 9.26 µM (active) | 2.31 µM (active) | – | – | – | –
2 | CC[C@H](C)[C@@H]1NC(=O)CNC(=O)c2csc(n2)[C@H](C(C)(C)O)OC(=O)C(C)(C)[C@H](CCCC(C)(Cl)Cl)OC(=O)c2csc1n2 [LYNGBYABELLIN A] | – | – | – | < 0.195 µM (active) | 2.1 µM (active) | 2.72 µM (active) | AC50 (Paired box protein Pax-8): < 0.26 µM (active)
3 | COC(=O)C1=C(C)N(CC(C)C)C(=S)NC1c1ccc(-c2ccccc2)cc1 (configuration not stated) | – | – | – | 42 µM (active) | 51.6 µM (active) | 15.6 µM (active) | AC50 (HeLa): > 52 µM (inactive); AC50 (Cryptococcus neoformans [4]): 23.6 µM (active); AC50 (HEK293): 20.4 µM (active); AC50 [5]: 20.4 µM (active)
4 | O=C(c1n[nH]cc1-c1cccc(Br)c1)C1CO1 (configuration not stated) | – | – | – | – | – | – | EC50 [6]: > 91.2 µM (inactive); EC50 [7]: > 91.2 µM (inactive)
5 | COc1cc(/C=C2\CCCc3c2nc2ccccc2c3C(=O)O)cc(Br)c1O | – | – | – | – | – | – | IC50 [8]: 3.84 µM (active); IC50 [9]: 2.85 µM (active); AC50 [10]: 63.8 µM (active)
6 | O=C1/C(=C/NCCc2ccccc2)c2ccccc2C(=O)N1Cc1ccccc1 | 4.54 µM (active) | 83.2 µM (inactive) | 10.9 µM (active) | – | – | – | –
